Data set [1] in a line: Solubility in water of dye quenchers.
In the next data set the test system is 20 ligand-receptor pairs. To be noted: quenchers for fluorescent voltage dyes.
A further data set concerns the target DRD2 receptor (Homo sapiens, UniProt P14416).
Data set [2] addresses Gi-coupled D2 dopamine receptor (Homo sapiens, UniProt P14416). Particulars: 300 nM, FIG. 29.
Data set [3] deals with stably transformed cells expressing a CNG channel gene. The data set can be described thus: CNG channel endpoint assay, 384 well, FLEXstation. It counts as cell-based. Particulars: 30 μM, 90 minutes after stimulation. The procedure: The CNG channel assay can also be used to perform endpoint assays. Decay of fluorescence responses results from desensitization of CNG channel was effectively removed by chelating extracellular calcium by EGTA and supplementing inhibitors of phosphodiesterase. Stably transformed cells expressing a CNG channel gene were seeded into 384 well plates and grown as described in previous examples. Forskolin was dissolved at a final concentration of 30 μM in Compound Buffer containing EGTA. Fluorescence intensity values of cells incubated with forskolin or with Compound Buffer only were read using FLEXstation (Molecular Devices) at different time points after forskolin stimulation.

The nature of data set [4]: CNG channel voltage dye assay with quencher dyes, cell line ASC0089 (Cyclase).
The next data set deals with T1, GCGR (Homo sapiens, UniProt P47871).
T1 construct: expressed in transfected cells
The data set can be described thus: CNG channel voltage dye assay with quencher dyes, cell line ASC0089 (GCGR). It counts as cell-based.

The target in another data set is T2, A2B (Homo sapiens, UniProt P29275).
T2 construct: endogenous in cells
T2 sequence (P29275 1-332): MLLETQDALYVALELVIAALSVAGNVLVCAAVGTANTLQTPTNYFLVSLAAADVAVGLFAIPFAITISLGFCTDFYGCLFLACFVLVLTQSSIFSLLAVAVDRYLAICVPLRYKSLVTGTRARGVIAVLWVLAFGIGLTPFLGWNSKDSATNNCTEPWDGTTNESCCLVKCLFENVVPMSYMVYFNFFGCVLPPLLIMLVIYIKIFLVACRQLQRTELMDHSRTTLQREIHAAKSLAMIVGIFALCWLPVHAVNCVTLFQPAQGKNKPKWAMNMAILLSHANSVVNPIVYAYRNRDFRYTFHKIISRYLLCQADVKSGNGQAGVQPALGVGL
The experiment in a line: CNG channel voltage dye assay with quencher dyes, cell line ASC0097 (A2B). Type of data set: cell-based. Particulars: FIG. 20.

The next data set concerns tyramine receptor. The data set can be described thus: Tyramine receptor activation, CNG channel assay with membrane potential dye. Type of data set: cell-based. To be noted: HEK293 transient, FIG. 16. The procedure: In this example, activation of the tyramine receptor was examined using the CNG channel assay and compared with calcium fluorescence assays using Gα16 and Gαqs. Similar amounts of plasmids comprising CNG channel, Gα16 or Gαqs were used for transient expression in HEK293 cells also transiently expressing tyramine receptor. Calcium assays were performed following the protocol provided by Molecular Devices. For each concentration of tyramine, three recordings were made to obtain an average response in cells expressing Gα16, Gαqs and CNG channel respectively.

In a further data set the test system is cell membranes. The experiment in a line: Effect of EGTA in extracellular assay solution on baseline voltage dye fluorescence. To be noted: CNG channel without pore mutation. It counts as cell-based.
Data set [5] is described as follows: CNG channel voltage dye assay with quencher dyes, cell line ASC0097 (EP2). Particulars: NY & H30602.
In the next data set the target is T3, VIP2R (Homo sapiens, UniProt P41587).
T3 construct: expressed in transfected cells; host or cells: cell line ASC0145 (CNG sensor line)
T3 sequence (P41587 24-438): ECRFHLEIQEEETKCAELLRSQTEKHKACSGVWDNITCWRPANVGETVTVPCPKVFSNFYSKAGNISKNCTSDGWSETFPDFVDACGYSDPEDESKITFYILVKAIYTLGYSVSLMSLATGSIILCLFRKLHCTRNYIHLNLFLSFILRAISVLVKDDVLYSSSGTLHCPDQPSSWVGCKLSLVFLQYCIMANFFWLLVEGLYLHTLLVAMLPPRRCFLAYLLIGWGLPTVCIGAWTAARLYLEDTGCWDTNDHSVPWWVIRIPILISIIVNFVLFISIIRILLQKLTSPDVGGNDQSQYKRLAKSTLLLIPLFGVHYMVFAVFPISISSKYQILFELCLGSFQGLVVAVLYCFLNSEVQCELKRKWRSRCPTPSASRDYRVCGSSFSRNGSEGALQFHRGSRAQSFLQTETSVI
The data set can be described thus: CNG channel voltage dye assay with quencher dyes, cell line ASC0145 (VIP2R). It counts as cell-based. Particulars: ASC0145, compared with MDC dye kit R-8034, FIG. 23.

In a further data set the target is T4, GIPR (Homo sapiens, UniProt P48546).
T4 construct: expressed in transfected cells; host or cells: cell line ASC0133 (CNG sensor line)
T4 sequence (P48546 22-466): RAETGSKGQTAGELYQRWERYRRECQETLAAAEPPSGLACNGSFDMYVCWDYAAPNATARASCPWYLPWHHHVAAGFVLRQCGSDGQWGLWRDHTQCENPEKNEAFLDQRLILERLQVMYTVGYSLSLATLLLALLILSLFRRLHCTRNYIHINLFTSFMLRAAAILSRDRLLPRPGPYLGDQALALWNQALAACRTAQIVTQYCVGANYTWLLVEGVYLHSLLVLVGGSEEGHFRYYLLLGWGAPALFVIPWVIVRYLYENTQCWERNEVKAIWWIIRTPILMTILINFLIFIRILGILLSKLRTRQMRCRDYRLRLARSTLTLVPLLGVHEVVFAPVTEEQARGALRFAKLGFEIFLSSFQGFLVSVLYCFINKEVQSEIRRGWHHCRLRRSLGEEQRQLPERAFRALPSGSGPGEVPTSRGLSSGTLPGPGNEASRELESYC
The data set can be described thus: CNG channel voltage dye assay with quencher dyes, cell line ASC0133 (GIPR). It counts as cell-based. Particulars: ASC0133, compared with MDC dye kit R-8034, FIG. 24.

In another data set the target is MC1R (Homo sapiens, UniProt Q01726). To be noted: cell line ASC0179.

pEC50: −log10 of the molar value. In brackets after ≈: the same amount, converted by molar mass. Entries after “also recorded” stand apart in the source; their conditions may differ. Like-named read-outs stand apart in the source and are kept apart here. A value given as a limit tells only on which side of the number the result lay.

Chain of DRD2 receptor (P14416 whole entry): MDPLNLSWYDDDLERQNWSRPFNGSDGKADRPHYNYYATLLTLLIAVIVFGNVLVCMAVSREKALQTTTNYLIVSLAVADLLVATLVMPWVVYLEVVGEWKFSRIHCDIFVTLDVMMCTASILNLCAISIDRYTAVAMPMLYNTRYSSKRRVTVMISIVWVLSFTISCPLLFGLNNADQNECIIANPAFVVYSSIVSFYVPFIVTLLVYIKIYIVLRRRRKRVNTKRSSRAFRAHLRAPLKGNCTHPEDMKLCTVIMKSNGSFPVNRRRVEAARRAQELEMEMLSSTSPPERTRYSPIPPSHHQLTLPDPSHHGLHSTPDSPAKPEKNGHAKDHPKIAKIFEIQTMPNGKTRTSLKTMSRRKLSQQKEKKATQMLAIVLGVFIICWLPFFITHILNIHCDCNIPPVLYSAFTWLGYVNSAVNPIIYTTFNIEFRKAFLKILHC
T1 sequence (P47871 26-477, species assumed): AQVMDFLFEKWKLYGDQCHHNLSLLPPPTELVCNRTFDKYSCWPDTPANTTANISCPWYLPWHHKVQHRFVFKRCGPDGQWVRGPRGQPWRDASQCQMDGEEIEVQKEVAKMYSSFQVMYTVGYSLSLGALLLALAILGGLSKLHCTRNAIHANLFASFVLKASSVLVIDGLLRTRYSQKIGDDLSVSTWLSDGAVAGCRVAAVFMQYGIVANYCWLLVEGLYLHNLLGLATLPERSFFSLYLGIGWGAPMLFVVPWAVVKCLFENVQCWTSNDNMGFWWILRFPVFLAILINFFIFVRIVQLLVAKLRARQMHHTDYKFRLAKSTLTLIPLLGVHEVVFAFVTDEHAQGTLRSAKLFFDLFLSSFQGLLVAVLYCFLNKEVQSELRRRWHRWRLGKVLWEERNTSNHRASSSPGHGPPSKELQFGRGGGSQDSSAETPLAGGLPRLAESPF
Chain of MC1R (Q01726 whole entry, species assumed): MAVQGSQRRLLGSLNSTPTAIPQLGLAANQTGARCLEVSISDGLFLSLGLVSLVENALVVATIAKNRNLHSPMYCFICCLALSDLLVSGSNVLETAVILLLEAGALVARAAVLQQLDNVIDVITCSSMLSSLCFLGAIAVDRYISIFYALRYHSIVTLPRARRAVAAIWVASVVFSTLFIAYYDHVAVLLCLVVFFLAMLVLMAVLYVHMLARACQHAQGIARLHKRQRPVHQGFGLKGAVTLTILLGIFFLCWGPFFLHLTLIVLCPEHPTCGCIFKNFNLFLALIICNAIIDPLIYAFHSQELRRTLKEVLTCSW
Chain of Gi-coupled D2 dopamine receptor (P14416 whole entry): as the sequence (P14416 whole entry) above
From the text for DRD2 receptor: This kind of assay is figuratively dubbed as “upside down assay”, as the activation of receptor brings down the fluorescence signal from a highly activated level.

In the case of `Nc1c(N=Nc2ccc([N+](=O)[O-])cc2)c(S(=O)(=O)[O-])cc2cc(S(=O)(=O)[O-])cc(O)c12.[Na+].[Na+]` [Nitro Red], in data set [1], the “Solubility in Water” value turned out to be 40 mg/mL. The “effect of quencher on responses of peptides and other small organic molecules” value in the data set on 20 ligand-receptor pairs was “little effect”.
Take `NCCc1ccc(O)c(O)c1` [dopamine]: the “time to maximal response” value on DRD2 receptor (1 μM dopamine, 96-well, FLEXstation) is reported as “about 400 seconds”. The “time for forskolin-induced fluorescence signal to nearly return to the pre-forskolin level” value at DRD2 receptor (no PDE inhibitor, FIG. 28A) was not above 7 min. In addition, the calcium response result in data set [2] is listed as “does not affect calcium levels”.
In the case of `C=C[C@@]1(C)CC(=O)[C@]2(O)[C@@]3(C)[C@@H](O)CCC(C)(C)[C@@H]3[C@H](O)[C@H](OC(C)=O)[C@@]2(C)O1` [forskolin], the “increase of fluorescence intensity versus buffer control” value in data set [3] is 2.8 fold. In data set [3] (n=192), the fluorescence intensity is recorded as 5.3±0.5×10^5 RFU. Besides, the pEC50 (in general, −log10 of the EC50, conventionally taken in molar units) in data set [4] (MDC dye) was 6.64; in [4] (NY & H30602) it was 6.80. Moreover, the results for the “maximal response Fmax/Fb” value in [4] (MDC dye) and in data set [4] (NY & H30602) were 5.3 and 5.1, respectively.
With `O=S1(=O)OC(c2cc(Br)c(O)c(Br)c2)(c2cc(Br)c(O)c(Br)c2)c2ccccc21` [Bromophenol Blue], the “Interference of quencher with response to glucagon stimulation” value at GCGR (FIG. 21) is reported as “interfered”. Also, the “Suitability of quencher for assay of adenosine receptor A2B responses to NECA” value on A2B was “reduced NECA response without affecting NECA potency”. In addition, in data set [1], the “Solubility in Water” value came out at 30 mg/mL (≈ 44.8 mM).
Regarding `NCCc1ccc(O)cc1` [tyramine], the tyramine receptor activation entry with tyramine receptor is on record as “detectable”.
As for `O=C(O)CN(CCOCCOCCN(CC(=O)O)CC(=O)O)CC(=O)O` [EGTA], the “fluorescence increase over baseline” value with cell membranes is on record as “about 40%”.
Take `CCCCC[C@H](O)/C=C/[C@H]1[C@H](O)CC(=O)[C@@H]1CCCCCCC(=O)O` [PGE1, Prostaglandin E1]: in [5], the pEC50 is 7.40 and the “maximal response Fmax/Fb” value amounted to 5.3.
With Nitrazine Yellow, the “Effect of quencher on glucagon potency” value on GCGR (compared with other quenchers and MDC dye kit, FIG. 21, 22) is reported as “Glucagon potency increased”. Moreover, the “Effect of quencher on VIP potency” value at VIP2R was “left-shifted by about one order of magnitude; also recorded: increased using nitrazine yellow as a quencher by more than one order”. For the same compound, the “Effect of quencher on GIP potency” value on GIPR is given as “left-shifted by about one order of magnitude; also recorded: increased using nitrazine yellow as a quencher by one order”. In data set [1], the “Solubility in Water” value was found to be 20 mg/mL. The “effect of quencher on responses of peptides and other small organic molecules” value in the data set with 20 ligand-receptor pairs is recorded as “little effect”.
As to α-MSH, the “maximal response Fmax/Fb” value is reported as 5 at MC1R (MDC dye) and 5.1 at MC1R (TB & H30602).

The values above are taken from patent US7238213B2, “Cell-based assays employing voltage and calcium dyes” (priority 2001, dated 2007).
